The text below walks through data of paper PMC12251544 (2025).

Structures are written as SMILES.

The subject of the assay is FAM-SpA1-1/SpA1-2 (T-2 toxin split aptamer) (DNA, aptamer) CAGCTCAGAAGCTTGATCCTG/TATATCAAGCATAGAGGTG
Conditions: 5 mM K+, 100 mM Na+, 1 mM Mg2+; 50 mM Tris-HCl, 1% methanol, pH 7.4, room temperature; sensor selectivity; concentration tested not stated.
In the case of `C[C@@H]1Cc2c(Cl)cc(C(=O)N[C@@H](Cc3ccccc3)C(=O)O)c(O)c2C(=O)O1`, the binding result is reported as “no”.
To `C[C@H]1CCCC(=O)CCC/C=C/c2cc(O)cc(O)c2C(=O)O1` belongs “no”; to `CCCC[C@@H](C)[C@@H](OC(=O)C[C@@H](CC(=O)O)C(=O)O)[C@H](C[C@@H](C)C[C@H](O)CCCC[C@@H](O)C[C@H](O)[C@H](C)N)OC(=O)C[C@@H](CC(=O)O)C(=O)O`, “no”.
